Data reported in patent publication US20230114123A1, “METHOD OF STIMULATING ASYMMETRIC DIVISION OF SATELLITE STEM CELLS” (Ottawa Hospital Research Institute, priority 2017, published 2023).

Assays:
Type in all cases: cell-based, mouse
[1] = tested on: satellite stem cells; experiment: EDL myofiber culture, satellite stem cell divisions (Myf5-Cre/R26R-eYFP, wild type); details: for Average number of asymmetric divisons/fiber / Proportion of YFP- divisions that are asymmetric divisions: WT myofibers, 42 h of culture
Procedure: EGFR Signaling Regulates Asymmetric Satellite Stem Cell Divisions. To assess the role of EGFR in asymmetric division, the inventors cultured satellite cells in myofibers isolated from Extensor digitorum longus (EDL) muscles from Myf5-Cre/R26R-eYFP mice and performed both loss-of-function and gain-of-function experiments. Isolated myofibers were first cultured for 42 h with and without treatment with the Lapatinib, a specific inhibitor of EGFR signaling.
(§1) EDL fiber Culture and siRNA Transfection. Myofiber culture was performed as described in Dumont, N. A., et al. “Dystrophin expression in muscle stem cells regulates their polarity and asymmetric division.” Nat. Med. (2015) 21:1455-63, which is incorporated herein by reference. Briefly, EDL were carefully dissected and incubated in DMEM with 2% L-glutamine, 4.5% glucose, and 110 mg/mL sodium pyruvate (Gibco) containing 0.2% collagenase I (Sigma) for 45 min. Myofibers were isolated using gentle trituration with a glass pipet. Myofibers were cultured for 36, 42, or 72 h in DMEM containing 20% FBS (Wisent), 1% chick embryo extract (MP Biomedicals), and 2.5 ng/ml bFGF (Cedarlane). For pharmacological inhibition, Lapatinib ditosylate (1 mM in DMSO; Santa
(§2) Cruz Biotechnology), PTP1b inhibitor CAS 765317-72-4 (10 mM in DMSO; Santa Cruz Biotechnologies) was added to the culture medium for a final concentration of 1 μM or 10 μM, respectively; equal dilution of DMSO was used as vehicle control.
Transfection of satellite cells on myofibers was performed using lipofectamine RNAimax (Life Technologies) and validated Smartpool siRNAs for EGFR, Aurka, or scramble (SCR) (Dharmacon). Two transfections were performed at 4 h and 16 h after isolation of the myofibers as described in Le Grand, et al. (2009) Wnt7a activates the planar cell polarity pathway to drive the symmetric expansion of satellite stem cells. Cell Stem Cell 4, pp 535-547, which is incorporated herein by reference. Knockdown efficiencies of the siRNA were validated in myoblasts by western blot and qRT-PCR.

[2] = tested on: dystrophin-deficient satellite stem cells; experiment: EDL myofiber culture, satellite stem cell divisions (mdx Myf5-Cre/R26R-eYFP); details: for Average number of asymmetric divisons/fiber / Proportion of YFP- divisions that are asymmetric divisions: mdx myofibers, 42 h of culture
Procedure: as §1, §2

[3] = tested on: satellite cell divisions; experiment: FDB myofiber screening method validation (YFP(-) divisions); details: for percentage of YFP(-) divisions that were symmetric divisions: control 62% (Wnt7a experiment), control 45% (EGF / PTP1b experiment); for percentage of YFP(-) divisions that were asymmetric divisions: control treated cells 55%
Excerpt: EGFR pathway activators may be identified in a method of screening potential activators. The method includes visualizing isolated, cultured, and stained Flexor Digitorum Brevis (FDB) myofibers from Myf5-Cre/ROSA26-YFP mice in a plurality of Z-stack planes to create a projection image. Muscle satellite cells are identified in the projection image based on Pax7 expression. Of the identified muscle satellite cells: (i) satellite stem cells are identified based on the absence of YFP expression, and (ii) committed satellite progenitor cells are identified based on yellow fluorescence protein (YFP) expression. A potential EGFR pathway activator is administered to the FDB myofibers. The number of symmetric divisions of satellite myogenic cells, identified by the production of two YFP(+) satellite cells, are counted; the number of symmetric satellite stem cell divisions, identified by the production of two YFP(−) satellite cells, are counted; and the number of asymmetric satellite cell divisions, identified by the production of one YFP(+) and one YFP(−) satellite cell, are counted. The potential EGFR pathway activator is identified as an EGFR pathway activator when the percent of YFP(−) divisions that are asymmetric divisions is greater than the corresponding percent in a control sample. The expression “YFP(−) divisions” refers to all cell divisions where one of the daughter cells is YFP(−).
Identification of EGFR pathway activators. Flexor Digitorum brevis (FDB) fibers were isolated from Myf5-Cre/Rosa-YFP mice and digested in 0.25% Collagenase Type I (Sigma) in DMEM (Dulbecco's modified Eagle's medium; high glucose, L-glutamine with 110 mg/ml sodium pyruvate) for 2.5-3 h. Myofibers were dissociated using gentle trituration with a glass pipette.
Myofibers are cultured at 37° C., 5% CO2 for 42 h in myofiber culture media (DMEM supplemented with 20% FBS(Wisent), 1% Chicken Embryo extract (MP Biomediacals), 1% Penicillin/Streptomycin (Cederlane) and 2.5 ng/ml basic Fibroblast Growth Factor (Cedarlane).
Myofibers are first fixed in 2% Paraformaldehyde (PFA) for 5 mins. Myofibers are blocked for 1-2 h in 1% Bovine Serum Albumin, 0.5% TritonX-100, 5% HS and 0.01% Sodium Azide. Primary antibodies are applied in blocking solution for 2 h at room temperature or at 4° C. overnight. Myofibers are washed with PBS and stained with appropriate fluorescently labeled secondary antibodies (Alexa Fluor 488, 546) for 1 hat room temperature. Following washing with PBS, fiber nuclei are stained with DAPI for 5 min. The following antibodies are used: mouse anti-Pax7 (Developmental Studies Hybridoma Bank (DSHB)), chicken anti-GFP (cat. no. ab13970, Abcam).
Satellite cells are focused based on Channel 3 (DAPI) staining. Autofocus is performed by sampling seven (7) z-stacks taken at […] intervals for an extended depth of field of 85.3 μm.
Z-stack images were consolidated to create a projection image with all satellite cells in focus. Image acquisition of a projection image for analysis was created from seven (7) Z-stack images taken at 6.5 μm intervals, for an extended depth of field of 45.5 μm at 200 (Objective 20×) magnification. The projection direction was centered, where the median stacks fall within the center of each myofiber. […]
Potential satellite cells were first identified based on Channel 1 (Pax7) signal, and separated from other satellite cells based on intensity of fluorescence between cells. […]

[4] = 42 h culture, recombinant EGF vs vehicle, FIG. 4A

Molecule	Average number of asymmetric divisons/fiber [1]	Proportion of YFP- divisions that are asymmetric divisions [1] [%]	Average number of asymmetric divisons/fiber [2]	Proportion of YFP- divisions that are asymmetric divisions [2] [%]	percentage of YFP(-) divisions that were symmetric divisions [3] [%]	percentage of YFP(-) divisions that were asymmetric divisions [3] [%]	increase in the rate of asymmetric satellite stem cell division ([1]; 42 h culture, recombinant EGF 100 ng/mL vs vehicle, FIG. 2A) [fold]	increase in asymmetric division, WT satellite cells [1, 4] [%]	increase in the rate of asymmetric division, mdx satellite cells [2, 4] [%]	increase in the absolute number of asymmetric satellite stem cell divisions, mdx ([2]; 42 h of myofiber culture, FIG. 4B) [fold]
CCc1oc2cc(S(=O)(=O)Nc3ccc(S(=O)(=O)Nc4nccs4)cc3)ccc2c1C(=O)c1cc(Br)c(O)c(Br)c1 [PTP1b inhibitor, 3-(3,5-dibromo-4-hydroxy-benzoyl)-2-ethyl-benzofuran-6-sulfonicacid-(4-(thiazol-2-ylsulfamyl)-phenyl)-amide, reference compound]	0.988	66.70	0.463	33.33	33	67	–	–	–	–
EGF: human recombinant EGF protein (Life Technologies), direct activator of the EGFR pathway	0.939	70.86	0.436	34.60	29	71	2.5	29	67	2
